From patent publication US8198033B2, “Methods and materials for observing apoptosis” (Genentech, Inc., priority 2006, dated 2012)
Where a SMILES comes first, the peptide text is derived from it. The star is where a group is joined. Cbz = O=C(OCc1ccccc1)*; CH2F = FC*

Columns and labels:
Format in all cases: cell-based, human
BJAB or Colo205 cells = assay: Immunoblot for cleavage of clathrin-pathway components after DNA-damaging agents
Experimental: BJAB or Colo205 cells were treated with vinblastine, or adriamycin for the indicated time and analyzed by immunoblot as in FIG. 1.
Human colorectal adenocarcinoma Colo205 cells human B cell lymphoma BJAB cells and human T cell carcinoma Jurkat wild type cells (A3 clone), FADD-deficient (E1) and caspase-8-deficient (I9.3) were cultured in RPMI 1640+10% fetal bovine serum (FBS)+2 mM glutamine+1000 U/ml Penicillin-Streptomycin (Life Technologies). Human cervical carcinoma HeLa-M cells human breast adenocarcinoma MCF7 and human colorectal adenocarcinomas HCT15, HCT8, SW948, Colo320, human fibrosarcoma HT180 (ATCC), HCT116 Bax(−/−), HCT116 Bax(+/−) were grown in 50:50 Dulbecco's modified Eagle's and FK12 medium+10% FBS+1000 U/ml Penicillin-Streptomycin. cDNA clones encoding temperature-sensitive dynamins were the G273D mutant and dominant negative K44A mutant dynamin-1 (Dyn^G273D and Dyn^K44A, respectively). Dyn^G273D was expressed from pHUSH-ProEx, a single retroviral plasmid tetracycline-inducible expression system constructed at Genentech. […]

[1] = test system: AP2α, AP1/2β, clathrin heavy chain (CHC), dynamin; assay: Immunoblot for cleavage of clathrin-dependent endocytosis machinery and caspases in cell lysates
Experimental: (b) Colo205 cells were treated as in (a) and analyzed by immunoblot for processing of specific components of various types of clathrin-associated endocytic trafficking.
Open arrows indicate cleavage products and solid arrows indicate full-length proteins.
(c) BJAB cells were treated with crosslinked Apo2L/TRAIL and processing of dynamin was determined by immunoblot.
The cells were analyzed by immunoblot for processing of caspase-8, caspase-9, caspase-3, and AP2α.
Human colorectal adenocarcinoma Colo205 cells human B cell lymphoma BJAB cells and human T cell carcinoma Jurkat wild type cells (A3 clone), FADD-deficient (E1) and caspase-8-deficient (I9.3) were cultured in RPMI 1640+10% fetal bovine serum (FBS)+2 mM glutamine+1000 U/ml Penicillin-Streptomycin (Life Technologies). Human cervical carcinoma HeLa-M cells human breast adenocarcinoma MCF7 and human colorectal adenocarcinomas HCT15, HCT8, SW948, Colo320, human fibrosarcoma HT180 (ATCC), HCT116 Bax(−/−), HCT116 Bax(+/−) were grown in 50:50 Dulbecco's modified Eagle's and FK12 medium+10% FBS+1000 U/ml Penicillin-Streptomycin. cDNA clones encoding temperature-sensitive dynamins were the G273D mutant and dominant negative K44A mutant dynamin-1 (Dyn^G273D and Dyn^K44A, respectively). Dyn^G273D was expressed from pHUSH-ProEx, a single retroviral plasmid tetracycline-inducible expression system constructed at Genentech. The cDNA was first cloned into a shuttle plasmid containing a CMV enhancer-promoter sequence with two copies of the tetracycline operator TetO2, then transferred via in vitro phage lamda-based recombination, or Gateway® technology (Invitrogen, Carlsbad), to a Moloney murine leukemia virus backbone vector in which the wild type Tet repressor is driven by a separate β-actin promoter and followed by an internal ribosomal entry sequence and puromycin selection cassette. Dyn^K44A was expressed from the 2-vector tetracycline-inducible retroviral expression system, pRevTet-On/pRev-Tre (Clontech), using serial infections. Retroviral vectors were transfected into Phoenix amphotropic Moloney Murine Leukemia Virus packaging cells using Lipofectamine 2000 […]. Retroviral particles were harvested and used in HeLa-M and BJAB cell infections as described previously (Simpson et al. J Cell Biol 137, 835-45, 1997). Dyn^G273 infected cells were puromycin selected (2-3 μg/ml) for 1-2 weeks and cloned either by manually picking individual HeLa-M colonies or by FACS sorting of resistant BJAB cells (gated for exclusion of propidium iodide) and single cell seeding in 96-well cell culture plates using an EPICS ELITE-ESP equipped with an Autoclone device (Coulter, Hialeah, Fla.). Cell clones were screened for uniformity of doxycycline inducible dynamin-1 expression by immunofluorescence microscopy. Dyn^K44A-infected cells were hygromycin B (400 μg/ml) and G418 (1 mg/ml) selected for 1-2 weeks. Induction with doxycycline (1 μg/ml) was performed at 32° C. for 72 hr as described previously (Damke et al. J Cell Biol 131, 69-80 1995). Vincristine sulfate (#T-117), Adriamycin.HCL (GR-319) were purchased from Biomol, tetracycline-free FBS from Hyclone, Puromycin from Clontech and Doxycyclin from Sigma. zVAD-fmk (asN-benzyloxycarbonyl-Val-Ala-Asp-fluoromethylketone) was obtained from MD Biosciences (#FK-009). […]

BJAB and Colo205 cells = assay: Transferrin (Tf) endocytosis rate by flow cytometry; details: BJAB cells, zVAD-fmk 30 min then 4 hr crosslinked Apo2L/TRAIL
Experimental: The cells were then equilibrated on ice for 30 min with Alexa-647-conjugated Tf (^647TF) and uptake at 37° C. was measured by flow cytometry. Each endocytosis rate was derived from the slope of the initial linear phase of a 4 min uptake kinetics plot (a, inset). […] Rates were normalized to the DMSO treated sample (±SEM).
Sedimented cells were resuspended in cold 2% paraformaldehyde/PBS and mean fluorescence intensity of 10,000 cells quantified with a Coulter Epics Elite-ESP flow cytometer (Hialeah, Fla.). Endocytic rates were determined from linear slopes of steady-state internal/surface plots (see, e.g., Wiley, H. S. et. al, J Biol Chem 257, 4222-9 (1982)). For temperature-shift experiments, ice binding incubations were avoided. Instead, cells were preconditioned for 20 min and maintained at 30° C. or 38° C. in binding medium, incubated an additional 0 (control) or 20 min with ^647Tf, chilled on ice for 30 min, and processed for flow cytometry to determine internal/surface ^647Tf ratios.

DISC = DISC immunoprecipitation; details: BJAB cells chilled on ice
Experimental: (a) BJAB cells were equilibrated with ^647Tf on ice, incubated for the indicated uptake interval at 37° C. or on ice, then fluorescence quantified by flow cytometry. […] DISC-associated FADD and caspase-8 were visualized by immunoblot. (c, d) Dyn^G273D-transduced BJAB cells were treated with buffer (No Dox) or doxycyline (Dox) and shifted to 38° C. for 20 min to inactivate dynamin. The cells were treated with crosslinked Apo2L/TRAIL for the indicated amounts of time and the DISC was immunoprecipitated. DISC-associated FADD and caspase-8 were visualized by immunoblot (c) or DISC-associated caspase-8 activity was measured as described previously (Sharp et al. J Biol Chem 280, 19401-409, 2005).
BJAB cells (1×10^7 per time point) were treated with Flag-Apo2L/TRAIL cross-linked by anti-FLAG M2 Abs, collected, lysed, immunoprecipitated and the DISC was analyzed as described (see, e.g., Kischkel, F. C. et al., Immunity 12, 611-20 (2000)).

COc1cccc2c1C(=O)c1c(O)c3c(c(O)c1C2=O)C[C@@](O)(C(=O)CO)C[C@@H]3O[C@H]1C[C@H](N)[C@H](O)[C@H](C)O1 [adriamycin]
Cleavage of components of the clathrin machinery (BJAB or Colo205 cells): induced cleavage of components of the clathrin machinery, albeit with much slower kinetics than DR ligands

CC[C@]1(O)C[C@@H]2CN(CCc3c([nH]c4ccccc34)[C@@](C(=O)OC)(c3cc4c(cc3OC)N(C)[C@H]3[C@@](O)(C(=O)OC)[C@H](OC(C)=O)[C@]5(CC)C=CCN6CC[C@]43[C@@H]65)C2)C1 [vinblastine]
Cleavage of components of the clathrin machinery (BJAB or Colo205 cells): induced cleavage of components of the clathrin machinery, albeit with much slower kinetics than DR ligands

CC(C)[C@H](NC(=O)OCc1ccccc1)C(=O)N[C@@H](C)C(=O)N[C@@H](CC(=O)O)C(=O)CF [zVAD-fmk, N-benzyloxycarbonyl-Val-Ala-Asp-fluoromethylketone, reference compound] (Cbz-Val-Ala-Asp-CH2F)
Effect of pretreatment on ligand-induced cleavage of AP2α and CHC ([1]; BJAB cells, zVAD-fmk 20 μM 30 min then crosslinked Apo2L/TRAIL 1 μg/mL): prevented cleavage of AP2α and CHC | Effect of pretreatment on Apo2L/TRAIL inhibition of Tf endocytosis (BJAB and Colo205 cells): substantially reversed this inhibition

B1: FasL: Flag-tagged FasL, crosslinked; SEQ ID NO: 9 (protein, listed as Homo sapiens)
chain: MQQPFNYPYPQIYWVDSSASSPWAPPGTVLPCPTSVPRRPGQRRPPPPPPPPPLPPPPPPPPLPPLPLPPLKKRGNHSTGLCLLVMFFMVLVALVGLGLGMFQLFHLQKELAELRESTSQMHTASSLEKQIGHPSPPPEKKELRKVAHLTGKSNSRSMPLEWEDTYGIVLLSGVKYKKGGLVINETGLYFVYSKVYFRGQSCNNLPLSHKVYMRNSKYPQDLVMMEGKMMSYCTTGQMWARSSYLGAVFNLTSADHLYVNVSELSLVNFEESQTFFGLYKL
modifications: Flag tag, crosslinked
DISC assembly with Tf endocytosis blocked (DISC): still recruited FADD and caspase-8 to their respective receptors and processed caspase-8 | Cleavage of AP2α and CHC ([1]; BJAB cells, crosslinked ligand): stimulated cleavage of AP2α and CHC in BJAB cells comparably to Apo2L/TRAIL | Processing of AP2α and CHC ([1]; caspase-8-deficient or FADD-deficient mutant Jurkat cell lines): neither ligand stimulated processing of these targets | Cleavage of AP2α and CHC ([1]; wt Jurkat T cells): induced cleavage of AP2α and CHC
